Test results published in publication PMC10327353 (Breast Cancer Research : BCR, 2023).
Values joined by “and” are separate entries in the source; they are usually repeats but may differ in a detail not shown here. Equal entries are not always repeated.

Test: Phase 1 study: safety and tolerability
Type: in vivo
Description: The maximum tolerated dose (MTD) of DZD1516 was defined based on safety data and the Bayesian optimal interval (BOIN) design (Additional file 1). The definition of DLT is provided in Additional file 1.
The AE grading was assessed according to the NCI-Common Terminology Criteria for Adverse Events (CTCAE) (version 5.0) and was monitored until 28 days after the last dose.
Eligible patients received single oral dosing of DZD1516 on Cycle 0 Day 1 (C0D1), followed by a 7-day washout. Twice daily oral dosing (bid) of DZD1516 was commenced from C1D1 in a continuous 21-day cycle until disease progression, unacceptable toxicity, or withdrawal of consent. All doses were taken under fed conditions (within 30 minutes after a meal).
Planned dosing consisted of 25, 50, 100, 200, 300, and 400 mg. Each dose escalation cohort will comprise a minimum of three and a maximum of six evaluable patients (except only one patient in the starting dose cohort). The maximum tolerated dose of DZD1516 was defined according to safety data and the Bayesian optimal interval (BOIN) design. Dose escalation/de-escalation rule with target toxicity rate for the MTD is 0.30 with interval of (0.20, 0.33).
DLTs were any adverse event (AE) not clearly attributable to the patient’s disease, including ≥ grade 4 hematological toxicities present for ≥ 4 days, grade 3 thrombocytopenia with bleeding, or grade 4 thrombocytopenia lasting for > 5 days, ≥ grade 3 non-hematological toxicities that is dose-limiting in the judgment of the investigators. Any other toxicity that is greater than that at baseline, is clinically significant or unacceptable, and is judged to be a DLT by the SRC. Exceptions included alopecia of any grade and isolated grade 3 laboratory change without clinical sequelae or clinical significance.
Safety evaluations were conducted at screening, on Day 1, 8, and 15 of Cycle 1, on Day 1 of each subsequent treatment cycle, at the end-of-treatment visit, and clinically indicated. Safety assessments included clinical laboratory measurements (hematology, chemistry, coagulation, and urinalysis), electrocardiogram (ECG), Echocardiogram/MUGA scan, ECOG performance status, vital signs, and physical examinations.

COc1cc(O[C@H]2CCN(C)CC2(F)F)c2c(Nc3ccc(Oc4ccn5ncnc5c4)c(C)c3)ncnc2c1 [DZD1516]
Decreased appetite, ≥ Grade 3 (300 mg (N = 4)): 0 (0.0) n (%)
Dizziness, Any Grade (300 mg (N = 4)): 1 (25.0) n (%)
Dizziness, ≥ Grade 3 (300 mg (N = 4)): 1 (25.0) n (%)
Drug-related TEAE: Grade 3 (300 mg (N = 4)): 2 (50.0) n (%)
Drug-related TEAE: Leading to death (300 mg (N = 4)): 0 (0.0) n (%)
Drug-related TEAE: Leading to dose reduction (300 mg (N = 4)): 3 (75.0) n (%)
Drug-related TEAE: Leading to treatment discontinuation (300 mg (N = 4)): 0 (0.0) n (%)
Drug-related TEAE: Leading to treatment interruption (300 mg (N = 4)): 2 (50.0) n (%)
Drug-related TEAE: SAE (300 mg (N = 4)): 0 (0.0) n (%)
Fatigue, Any Grade (300 mg (N = 4)): 1 (25.0) n (%)
Fatigue, ≥ Grade 3 (300 mg (N = 4)): 1 (25.0) n (%)
Gastrointestinal disorders, Any Grade (300 mg (N = 4)): 4 (100.0) n (%)
Gastrointestinal disorders, ≥ Grade 3 (300 mg (N = 4)): 1 (25.0) n (%)
General disorders and administration site conditions, Any Grade (300 mg (N = 4)): 3 (75.0) n (%)
General disorders and administration site conditions, ≥ Grade 3 (300 mg (N = 4)): 2 (50.0) n (%)
Headache, Any Grade (300 mg (N = 4)): 4 (100.0) n (%)
Headache, ≥ Grade 3 (300 mg (N = 4)): 0 (0.0) n (%)
Hemoglobin decreased, Any Grade (300 mg (N = 4)): 0 (0.0) n (%)
Hemoglobin decreased, ≥ Grade 3 (300 mg (N = 4)): 0 (0.0) n (%)
Investigations, Any Grade (300 mg (N = 4)): 1 (25.0) n (%)
Investigations, ≥ Grade 3 (300 mg (N = 4)): 0 (0.0) n (%)
Lipase increased, Any Grade (300 mg (N = 4)): 0 (0.0) n (%)
Lipase increased, ≥ Grade 3 (300 mg (N = 4)): 0 (0.0) n (%)
Malaise, Any Grade (300 mg (N = 4)): 1 (25.0) n (%)
Malaise, ≥ Grade 3 (300 mg (N = 4)): 1 (25.0) n (%)
Metabolism and nutrition disorders, Any Grade (300 mg (N = 4)): 3 (75.0) n (%)
Metabolism and nutrition disorders, ≥ Grade 3 (300 mg (N = 4)): 0 (0.0) n (%)
Musculoskeletal and connective tissue disorders, Any Grade (300 mg (N = 4)): 3 (75.0) n (%)
Musculoskeletal and connective tissue disorders, ≥ Grade 3 (300 mg (N = 4)): 1 (25.0) n (%)
Nausea, Any Grade (300 mg (N = 4)): 4 (100.0) n (%)
Nausea, ≥ Grade 3 (300 mg (N = 4)): 1 (25.0) n (%)
Nervous system disorders, Any Grade (300 mg (N = 4)): 4 (100.0) n (%)
Nervous system disorders, ≥ Grade 3 (300 mg (N = 4)): 2 (50.0) n (%)
Participants with any TEAE, Any Grade (300 mg (N = 4)): 4 (100.0) n (%)
Participants with any TEAE, ≥ Grade 3 (300 mg (N = 4)): 3 (75.0) n (%)
Platelet count decreased, Any Grade (300 mg (N = 4)): 0 (0.0) n (%)
Platelet count decreased, ≥ Grade 3 (300 mg (N = 4)): 0 (0.0) n (%)
Proteinuria, Any Grade (300 mg (N = 4)): 1 (25.0) n (%)
Proteinuria, ≥ Grade 3 (300 mg (N = 4)): 0 (0.0) n (%)
Renal and urinary disorders, Any Grade (300 mg (N = 4)): 1 (25.0) n (%)
Renal and urinary disorders, ≥ Grade 3 (300 mg (N = 4)): 0 (0.0) n (%)
Subjects with any TEAE (300 mg (N = 4)): 4 (100.0) n (%)
Subjects with any drug-related TEAE (300 mg (N = 4)): 4 (100.0) n (%)
Vomiting, Any Grade (300 mg (N = 4)): 3 (75.0) n (%)
Vomiting, ≥ Grade 3 (300 mg (N = 4)): 1 (25.0) n (%)
White blood cell count decreased, Any Grade (300 mg (N = 4)): 0 (0.0) n (%)
White blood cell count decreased, ≥ Grade 3 (300 mg (N = 4)): 0 (0.0) n (%)
diarrhea (300 mg cohort): A single case of grade 2 diarrhea
dose-limiting toxicities (DLTs) (300 mg cohort): two out of four patients experienced DLTs
dose-limiting toxicity (DLT) (25–200 mg cohorts): no dose-limiting toxicity (DLT) observed
diarrhea or skin rash (MTD (250 mg) or lower doses): No diarrhea or skin rash of any grade was observed
Alanine aminotransferase increased, Any Grade (Total (N = 23)): 3 (13.0) n (%)
Alanine aminotransferase increased, ≥ Grade 3 (Total (N = 23)): 0 (0.0) n (%)
Anemia, Any Grade (Total (N = 23)): 3 (13.0) n (%)
Anemia, ≥ Grade 3 (Total (N = 23)): 0 (0.0) n (%)
Any TEAE: Grade 3 (Total (N = 23)): 6 n (%) and 6 (26.1) n (%)
Any TEAE: Leading to death (Total (N = 23)): 0 (0.0) n (%)
Any TEAE: Leading to dose reduction (Total (N = 23)): 3 n (%) and 3 (13.0) n (%)
Any TEAE: Leading to treatment discontinuation (Total (N = 23)): 1 (4.3) n (%)
Any TEAE: Leading to treatment interruption (Total (N = 23)): 5 n (%) and 5 (21.7) n (%)
Any TEAE: SAE (Total (N = 23)): 2 (8.7) n (%)
Aspartate aminotransferase increased, Any Grade (Total (N = 23)): 5 (21.7) n (%)
Aspartate aminotransferase increased, ≥ Grade 3 (Total (N = 23)): 0 (0.0) n (%)
Blood and lymphatic system disorders, Any Grade (Total (N = 23)): 3 (13.0) n (%)
Blood and lymphatic system disorders, ≥ Grade 3 (Total (N = 23)): 0 (0.0) n (%)
Blood bilirubin increased, Any Grade (Total (N = 23)): 4 (17.4) n (%)
Blood bilirubin increased, ≥ Grade 3 (Total (N = 23)): 0 (0.0) n (%)
Cardiac disorders, Any Grade (Total (N = 23)): 3 (13.0) n (%)
Cardiac disorders, ≥ Grade 3 (Total (N = 23)): 0 (0.0) n (%)
Constipation, Any Grade (Total (N = 23)): 3 (13.0) n (%)
Constipation, ≥ Grade 3 (Total (N = 23)): 0 (0.0) n (%)
Decreased appetite, Any Grade (Total (N = 23)): 4 (17.4) n (%)
Decreased appetite, ≥ Grade 3 (Total (N = 23)): 0 (0.0) n (%)
Dizziness, Any Grade (Total (N = 23)): 3 (13.0) n (%)
Dizziness, ≥ Grade 3 (Total (N = 23)): 1 (4.3) n (%)
Drug-related TEAE: Grade 3 (Total (N = 23)): 4 n (%) and 4 (17.4) n (%)
Drug-related TEAE: Leading to death (Total (N = 23)): 0 (0.0) n (%)
Drug-related TEAE: Leading to dose reduction (Total (N = 23)): 3 (13.0) n (%)
Drug-related TEAE: Leading to treatment discontinuation (Total (N = 23)): 0 (0.0) n (%)
Drug-related TEAE: Leading to treatment interruption (Total (N = 23)): 3 (13.0) n (%)
Drug-related TEAE: SAE (Total (N = 23)): 1 (4.3) n (%)
Fatigue, Any Grade (Total (N = 23)): 4 (17.4) n (%)
Fatigue, ≥ Grade 3 (Total (N = 23)): 1 (4.3) n (%)
Gastrointestinal disorders, Any Grade (Total (N = 23)): 10 (43.5) n (%)
Gastrointestinal disorders, ≥ Grade 3 (Total (N = 23)): 3 (13.0) n (%)
General disorders and administration site conditions, Any Grade (Total (N = 23)): 8 (34.8) n (%)
General disorders and administration site conditions, ≥ Grade 3 (Total (N = 23)): 2 (8.7) n (%)
Headache, Any Grade (Total (N = 23)): 10 (43.5) n (%)
Headache, ≥ Grade 3 (Total (N = 23)): 0 (0.0) n (%)
Hemoglobin decreased, Any Grade (Total (N = 23)): 7 (30.4) n (%)
Hemoglobin decreased, ≥ Grade 3 (Total (N = 23)): 0 (0.0) n (%)
Investigations, Any Grade (Total (N = 23)): 14 (60.9) n (%)
Investigations, ≥ Grade 3 (Total (N = 23)): 2 (8.7) n (%)
Lipase increased, Any Grade (Total (N = 23)): 3 (13.0) n (%)
Lipase increased, ≥ Grade 3 (Total (N = 23)): 0 (0.0) n (%)
Malaise, Any Grade (Total (N = 23)): 3 (13.0) n (%)
Malaise, ≥ Grade 3 (Total (N = 23)): 1 (4.3) n (%)
Metabolism and nutrition disorders, Any Grade (Total (N = 23)): 11 (47.8) n (%)
Metabolism and nutrition disorders, ≥ Grade 3 (Total (N = 23)): 0 (0.0) n (%)
Musculoskeletal and connective tissue disorders, Any Grade (Total (N = 23)): 7 (30.4) n (%)
Musculoskeletal and connective tissue disorders, ≥ Grade 3 (Total (N = 23)): 2 (8.7) n (%)
Nausea, Any Grade (Total (N = 23)): 6 (26.1) n (%)
Nausea, ≥ Grade 3 (Total (N = 23)): 1 (4.3) n (%)
Nervous system disorders, Any Grade (Total (N = 23)): 14 (60.9) n (%)
Nervous system disorders, ≥ Grade 3 (Total (N = 23)): 2 (8.7) n (%)
Participants with any TEAE, Any Grade (Total (N = 23)): 22 (95.7) n (%)
Participants with any TEAE, ≥ Grade 3 (Total (N = 23)): 6 (26.1) n (%)
Platelet count decreased, Any Grade (Total (N = 23)): 3 (13.0) n (%)
Platelet count decreased, ≥ Grade 3 (Total (N = 23)): 0 (0.0) n (%)
Proteinuria, Any Grade (Total (N = 23)): 4 (17.4) n (%)
Proteinuria, ≥ Grade 3 (Total (N = 23)): 0 (0.0) n (%)
Renal and urinary disorders, Any Grade (Total (N = 23)): 5 (21.7) n (%)
Renal and urinary disorders, ≥ Grade 3 (Total (N = 23)): 0 (0.0) n (%)
Subjects with any TEAE (Total (N = 23)): 22 (95.7) n (%)
Subjects with any drug-related TEAE (Total (N = 23)): 21 (91.3) n (%)
Vomiting, Any Grade (Total (N = 23)): 8 (34.8) n (%)
Vomiting, ≥ Grade 3 (Total (N = 23)): 2 (8.7) n (%)
White blood cell count decreased, Any Grade (Total (N = 23)): 3 (13.0) n (%)
White blood cell count decreased, ≥ Grade 3 (Total (N = 23)): 0 (0.0) n (%)
grade 4 or 5 AEs (all dose levels): No grade 4 or 5 AEs were reported
maximum tolerated dose (MTD) (patients, BID): 250 mg
